ChEMBL document CHEMBL2146454, “2,6-Naphthyridines as potent and selective inhibitors of the novel protein kinase C isozymes” (Bioorg Med Chem Lett, 2011)

What was measured:
[1] = target: Protein kinase C alpha type (Homo sapiens, UniProt P17252); test: Inhibition of recombinant human PKCalpha assessed as [33P]-ATP incorporation into tridecapeptide substrate after 60 mins by scintillation proximity assay
[2] = target: Protein kinase C beta type (Homo sapiens, UniProt P05771); test: Inhibition of recombinant human PKCbeta1 assessed as [33P]-ATP incorporation into tridecapeptide substrate after 60 mins by scintillation proximity assay
[3] = target: Protein kinase C delta type (Homo sapiens, UniProt Q05655); test: Inhibition of recombinant human PKCdelta assessed as [33P]-ATP incorporation into tridecapeptide substrate after 60 mins by scintillation proximity assay
[4] = target: T1, Protein kinase C epsilon type (Homo sapiens, UniProt Q02156); test: Inhibition of recombinant human PKCepsilon assessed as [33P]-ATP incorporation into tridecapeptide substrate after 60 mins by scintillation proximity assay
T1 sequence (Q02156 whole entry): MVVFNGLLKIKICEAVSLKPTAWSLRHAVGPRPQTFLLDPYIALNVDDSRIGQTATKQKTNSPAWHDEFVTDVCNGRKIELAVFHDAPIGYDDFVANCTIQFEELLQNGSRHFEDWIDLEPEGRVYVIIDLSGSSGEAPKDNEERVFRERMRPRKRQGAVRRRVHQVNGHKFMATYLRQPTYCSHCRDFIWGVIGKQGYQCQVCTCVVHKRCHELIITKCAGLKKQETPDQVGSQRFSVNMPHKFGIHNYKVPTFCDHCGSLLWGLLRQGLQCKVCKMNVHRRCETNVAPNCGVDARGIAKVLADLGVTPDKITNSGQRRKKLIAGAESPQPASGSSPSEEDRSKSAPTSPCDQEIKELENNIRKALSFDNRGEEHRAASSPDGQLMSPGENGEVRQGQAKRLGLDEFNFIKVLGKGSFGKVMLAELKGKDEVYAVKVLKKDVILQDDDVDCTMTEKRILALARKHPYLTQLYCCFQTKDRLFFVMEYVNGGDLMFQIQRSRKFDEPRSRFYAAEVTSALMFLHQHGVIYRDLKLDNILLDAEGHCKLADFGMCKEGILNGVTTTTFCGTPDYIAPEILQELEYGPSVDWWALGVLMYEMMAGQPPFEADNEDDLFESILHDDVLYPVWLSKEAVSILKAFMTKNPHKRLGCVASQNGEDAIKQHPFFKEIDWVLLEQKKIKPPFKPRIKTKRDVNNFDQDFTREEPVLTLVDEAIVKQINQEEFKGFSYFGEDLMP

[5] = target: Protein kinase C eta type (Homo sapiens, UniProt P24723); test: Inhibition of recombinant human PKCeta assessed as [33P]-ATP incorporation into tridecapeptide substrate after 60 mins by scintillation proximity assay
[6] = target: Protein kinase C theta type (Homo sapiens, UniProt Q04759); test: Inhibition of recombinant human PKCtheta assessed as [33P]-ATP incorporation into tridecapeptide substrate after 60 mins by scintillation proximity assay
[7] = Inhibition of antiCD3 and antiCD28 antibody-stimulated rat blood T lymphocyte proliferation incubated 1 hr before antibody challenge measured after 52 hrs by radioactive [3H]-thymidine incorporation assay; assay type: tissue-based; conditions: T-cell
[8] = Intrinsic aqueous solubility of the compound; assay type: physicochemical; conditions: read-out: Intrinsic_solubility
[9] = Lipophilicity, log P of the compound; assay type: physicochemical; conditions: octanol/water
[10] = Octanol-water distribution coefficient, log D of the compound at pH 6.8; assay type: physicochemical
[11] = Plasma protein binding in human by rapid equilibrium dialysis method; assay type: ADME, cell-free; conditions: read-out: PPB (converted)
[12] = Plasma protein binding in rat by rapid equilibrium dialysis method; assay type: ADME, cell-free; conditions: read-out: PPB (converted)
[13] = AUC (infinity) in Lewis rat at 5 mg/kg, iv; assay type: ADME, organism-based; parameters: dose 5 mg/kg, route intravenous, time infinity; conditions: plasma
[14] = Elimination half life in Lewis rat at 5 mg/kg, iv; assay type: ADME, organism-based; parameters: dose 5 mg/kg, route intravenous; conditions: in vivo, read-out: beta t1/2 (converted)
[15] = Clearance in Lewis rat at 5 mg/kg, iv; assay type: ADME, organism-based; parameters: dose 5 mg/kg, route intravenous; conditions: in vivo
[16] = Volume of distribution at steady state in Lewis rat at 5 mg/kg, iv; assay type: ADME, organism-based; parameters: dose 5 mg/kg, route intravenous; conditions: in vivo, read-out: Vdss
[17] = AUC (infinity) in Lewis rat at 10 mg/kg, po; assay type: ADME, organism-based; parameters: time infinity, dose 10 mg/kg, route oral; conditions: plasma
[18] = Tmax in Lewis rat at 10 mg/kg, po; assay type: ADME, organism-based; parameters: dose 10 mg/kg, route oral; conditions: in vivo
[19] = Cmax in Lewis rat at 10 mg/kg, po; assay type: ADME, organism-based; parameters: dose 10 mg/kg, route oral; conditions: in vivo
[20] = Oral bioavailability in Lewis rat at 10 mg/kg; assay type: ADME, organism-based; conditions: in vivo
Mus musculus [21] = organism: Mus musculus; test: animal or person; assay type: functional; conditions: BALB/c, route oral
Mus musculus [22] = organism: Mus musculus; test: animal or person; assay type: functional; conditions: BALB/c, route oral; remark: listed apart in the source
[23] = Dissociation constant, pKa of the compound; assay type: physicochemical

Chain of Protein kinase C delta type (Q05655 whole entry): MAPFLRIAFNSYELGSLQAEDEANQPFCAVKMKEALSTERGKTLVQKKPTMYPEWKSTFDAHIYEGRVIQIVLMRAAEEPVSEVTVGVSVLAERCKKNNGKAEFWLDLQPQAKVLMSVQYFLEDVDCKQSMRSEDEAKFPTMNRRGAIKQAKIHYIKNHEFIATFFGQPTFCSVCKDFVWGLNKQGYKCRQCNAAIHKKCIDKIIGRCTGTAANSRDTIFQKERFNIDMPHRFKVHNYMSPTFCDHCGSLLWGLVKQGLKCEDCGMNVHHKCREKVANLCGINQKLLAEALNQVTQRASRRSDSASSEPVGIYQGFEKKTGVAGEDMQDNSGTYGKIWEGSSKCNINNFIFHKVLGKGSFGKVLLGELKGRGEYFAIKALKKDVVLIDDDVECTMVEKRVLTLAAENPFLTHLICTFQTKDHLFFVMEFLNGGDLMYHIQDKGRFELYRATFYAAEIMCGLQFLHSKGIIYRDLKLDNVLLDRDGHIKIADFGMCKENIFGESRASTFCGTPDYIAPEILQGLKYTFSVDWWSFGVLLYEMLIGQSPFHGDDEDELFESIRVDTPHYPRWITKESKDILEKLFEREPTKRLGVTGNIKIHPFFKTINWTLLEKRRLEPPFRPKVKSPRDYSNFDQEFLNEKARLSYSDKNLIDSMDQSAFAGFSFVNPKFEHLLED
Chain of Protein kinase C theta type (Q04759 whole entry): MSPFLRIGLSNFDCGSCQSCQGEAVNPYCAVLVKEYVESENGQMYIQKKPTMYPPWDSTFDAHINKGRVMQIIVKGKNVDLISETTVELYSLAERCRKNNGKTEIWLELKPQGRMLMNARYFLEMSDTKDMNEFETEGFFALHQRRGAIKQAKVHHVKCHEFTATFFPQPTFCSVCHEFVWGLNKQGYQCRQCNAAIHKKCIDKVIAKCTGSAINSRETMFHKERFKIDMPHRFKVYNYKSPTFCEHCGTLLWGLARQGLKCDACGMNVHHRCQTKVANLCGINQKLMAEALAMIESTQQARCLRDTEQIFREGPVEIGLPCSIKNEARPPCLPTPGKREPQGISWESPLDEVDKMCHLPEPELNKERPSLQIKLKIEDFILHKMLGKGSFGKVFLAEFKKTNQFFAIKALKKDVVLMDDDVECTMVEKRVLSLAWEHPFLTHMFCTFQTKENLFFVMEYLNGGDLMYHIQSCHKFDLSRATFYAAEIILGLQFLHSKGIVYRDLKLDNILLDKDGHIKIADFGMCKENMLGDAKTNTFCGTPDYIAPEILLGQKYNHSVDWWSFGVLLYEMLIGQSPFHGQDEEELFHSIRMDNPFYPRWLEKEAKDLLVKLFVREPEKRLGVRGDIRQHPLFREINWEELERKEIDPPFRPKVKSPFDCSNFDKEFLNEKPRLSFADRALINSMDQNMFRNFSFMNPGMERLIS
Chain of Protein kinase C eta type (P24723 whole entry): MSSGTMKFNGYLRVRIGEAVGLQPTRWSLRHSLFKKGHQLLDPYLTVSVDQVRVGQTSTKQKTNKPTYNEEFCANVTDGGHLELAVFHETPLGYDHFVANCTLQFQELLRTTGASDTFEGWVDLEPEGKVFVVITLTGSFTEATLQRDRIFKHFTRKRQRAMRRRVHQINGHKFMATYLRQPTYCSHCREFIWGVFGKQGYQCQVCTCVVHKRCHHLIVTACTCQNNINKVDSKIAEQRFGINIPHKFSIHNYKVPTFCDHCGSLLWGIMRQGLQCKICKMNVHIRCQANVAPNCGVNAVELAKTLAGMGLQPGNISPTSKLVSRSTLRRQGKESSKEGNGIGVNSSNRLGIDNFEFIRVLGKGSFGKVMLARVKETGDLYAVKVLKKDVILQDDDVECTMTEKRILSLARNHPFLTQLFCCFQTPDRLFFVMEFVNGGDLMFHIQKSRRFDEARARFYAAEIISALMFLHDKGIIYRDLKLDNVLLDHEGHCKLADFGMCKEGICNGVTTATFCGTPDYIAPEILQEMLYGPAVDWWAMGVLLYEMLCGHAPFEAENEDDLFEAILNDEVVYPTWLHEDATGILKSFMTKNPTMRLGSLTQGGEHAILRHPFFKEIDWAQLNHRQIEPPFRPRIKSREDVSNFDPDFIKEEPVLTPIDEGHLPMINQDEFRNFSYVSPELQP
Chain of Protein kinase C beta type (P05771 whole entry): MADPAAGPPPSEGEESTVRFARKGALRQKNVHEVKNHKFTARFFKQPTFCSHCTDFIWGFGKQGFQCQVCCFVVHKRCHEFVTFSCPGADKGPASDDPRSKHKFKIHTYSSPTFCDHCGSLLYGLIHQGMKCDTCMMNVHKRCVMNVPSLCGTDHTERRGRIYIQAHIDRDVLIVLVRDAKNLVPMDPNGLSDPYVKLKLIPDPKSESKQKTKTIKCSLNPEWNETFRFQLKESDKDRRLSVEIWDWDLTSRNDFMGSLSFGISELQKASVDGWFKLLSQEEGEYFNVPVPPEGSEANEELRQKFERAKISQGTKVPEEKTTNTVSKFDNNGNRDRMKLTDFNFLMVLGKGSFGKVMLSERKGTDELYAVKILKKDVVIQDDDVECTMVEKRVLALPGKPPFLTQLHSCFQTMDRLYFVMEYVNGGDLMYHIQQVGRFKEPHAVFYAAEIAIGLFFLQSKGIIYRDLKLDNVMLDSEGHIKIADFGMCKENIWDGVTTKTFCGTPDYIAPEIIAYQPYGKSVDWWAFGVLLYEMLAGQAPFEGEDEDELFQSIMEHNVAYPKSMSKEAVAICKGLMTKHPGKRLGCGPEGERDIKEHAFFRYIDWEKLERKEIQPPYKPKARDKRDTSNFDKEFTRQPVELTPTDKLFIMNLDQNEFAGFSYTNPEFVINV

| SMILES | IC50 [1] [nM] | IC50 [2] [nM] | IC50 [3] [nM] | IC50 [4] [nM] | IC50 [5] [nM] | IC50 [6] [nM] | further results |
| --- | --- | --- | --- | --- | --- | --- | --- |
| C[C@H](N)CNc1nc(-c2ccncc2)cc2cnccc12 | 829 | 378 | 8 | 5 | 2 | 55 | IC50 [7]: 138 nM; solubility [8]: > 400 µg/mL; logP [9]: 2.2; logD [10]: -0.3; fraction unbound [11]: 0.42; fraction unbound [12]: 0.37; AUC(0-inf) [13]: 1770 ng·h/mL; half-life [14]: 8.1 h; clearance [15]: 49 mL/min/kg; Vd [16]: 14 L/kg; AUC(0-inf) [17]: 712 ng·h/mL; Tmax [18]: 2 h; Cmax [19]: 53 ng/mL; bioavailability [20]: 20%; inhibition in vivo at 50 mg/kg (Mus musculus [21]): 37%; inhibition in vivo at 100 mg/kg (Mus musculus [22]): 70%; pKa [23]: 9 |
| CN(CCN)c1nc(-c2ccncc2)cc2cnccc12 | > 1000 | > 1000 | 371 | 24 | 34 | 350 |  |
| NCCOc1nc(-c2ccncc2)cc2cnccc12 | > 1000 | > 1000 | 703 | 120 | 82 | 948 |  |
| NCCNc1nc(-c2ccncc2)cc2cnccc12 |  | 859 |  |  |  |  |  |
| NC(CNc1nc(-c2ccncc2)cc2cnccc12)Cc1ccccc1 (stereo not given) | 818 | > 1000 | 932 | 403 | 452 | > 1000 |  |
| Cc1cnccc1-c1cc2cnccc2c(NCC(C)(C)N)n1 | > 1000 | > 1000 | 386 | 133 | 52 | 738 |  |
| CC(C)(N)CNc1nc(-c2ccncc2Cl)cc2cnccc12 | > 1000 | > 1000 | 221 | 47 | 15 | 93 |  |
| CC(C)Nc1cc(-c2cc3cnccc3c(NCC(C)(C)N)n2)ccn1 | > 1000 | > 1000 | > 1000 | > 1000 | 862 | > 1000 |  |
| NCCNc1cc(-c2ccncc2)cc2cnccc12 | > 1000 | > 1000 | 157 | 44 | 54 | 355 | IC50 [7]: 1040 nM |
| c1cc(-c2cc3cnccc3c(N3CCCNCC3)n2)ccn1 | 433 | 661 | 63 | 7 | 4 | 77 |  |
| NCCNc1nc(-c2ccncc2)cc2ccncc12 | > 1000 | > 1000 | > 1000 | > 1000 | > 1000 | > 1000 |  |
| NCCCNc1nc(-c2ccncc2)cc2cnccc12 | 676 | 779 | 53 | 13 | 10 | 97 |  |
| CC(C)(N)CNc1nc(-c2ccnc(N)c2)cc2cnccc12 | 378 | > 1000 | 294 | 147 | 60 | 496 |  |
| O=C1CN(c2nc(-c3ccncc3)cc3cnccc23)CCN1 | > 1000 | > 1000 | > 1000 | 802 | 735 | > 1000 |  |
| NCCNc1nc(-c2ccncc2)cc2ccccc12 | > 1000 | > 1000 | > 1000 | 877 | 743 | > 1000 |  |
| NC1CCCN(c2nc(-c3ccncc3)cc3cnccc23)C1 (stereo not given) | 771 | 865 | 214 | 8 | 13 | 132 |  |
| NCCNc1nc(-c2ccncc2)nc2cnccc12 | > 1000 | > 1000 | 102 | 38 | 27 | > 1000 |  |
| CNCCNc1nc(-c2ccncc2)cc2cnccc12 | > 1000 | > 1000 | 254 | 79 | 93 | 997 |  |
| NCCNc1nc(-c2ccncc2)cc2ncccc12 | > 1000 | > 1000 | > 1000 | 929 | 401 | > 1000 |  |
| c1cc(-c2cc3cnccc3c(N3CCNCC3)n2)ccn1 | > 1000 | 823 |  | 8 | 6 | 109 |  |
| CC(C)(N)CNc1nc(-c2ccncc2F)cc2cnccc12 | > 1000 | 961 | 124 | 62 | 18 | 140 |  |
| OCCNc1nc(-c2ccncc2)cc2cnccc12 | > 1000 | > 1000 | 635 | 81 | 188 | 743 |  |
| CC(C)(N)CNc1nc(-c2cccnc2)cc2cnccc12 | > 1000 | > 1000 | > 1000 | > 1000 | > 1000 | > 1000 |  |
